For data set [1] the following is noted: cited from earlier work; for binary class: Table 4.
In another data set the test system is MUTZ-3 cells. The data set is described as follows: GARD binary classification (SVM on GARD prediction signature, 200 transcripts). The conditions noted are these: for SVM DV: Table 8, average SVM decision value derived from triplicates.
A further data set deals with human skin. Particulars: cited from earlier work.

Like-named read-outs stand apart in the source and are kept apart here.

Description for MUTZ-3 cells: The SVM model had been developed for binary classifications (sensitizer versus non-sensitizer).

For the molecule `O=[N+]([O-])c1ccc(F)c([N+](=O)[O-])c1` [2,4-Dinitrofluorobenzene], the “binary class (HP*)” value in data set [1] (Table 1, based on [41] where available, HP 1-4=S, 5-6=NS, otherwise according to CLP) is given as “S”. Moreover, in data set [1], the binary class result is recorded as “sens”. In addition, the GARD binary prediction entry with MUTZ-3 cells (Table 1, sensitizer if median calibrated SVM DV of replicates > 0) is reported as “S”.

As to `Nc1ccccc1O` [2-aminophenol], the “SVM DV” value in the data set on MUTZ-3 cells is 5,98. In the data set with human skin, the HP is recorded as 2 and the Human potency is on record as 2.

Take `C=CC(=O)OCCO` [2-hydroxyethyl acrylate]: the “SVM DV” value in the data set with MUTZ-3 cells is 8,87.

On to `O=[N+]([O-])c1ccc(CBr)cc1` [4-nitrobenzylbromide], for which the binary class entry in data set [1] is on record as “sens”.

Consider `Nc1ccc(C(=O)O)cc1` [PABA], for which the “SVM DV” value in the data set with MUTZ-3 cells is recorded as -1,04. Besides, the Human potency in the data set with human skin was 5.

In the case of `CC1(C)S[C@@H]2[C@H](NC(=O)Cc3ccccc3)C(=O)N2[C@H]1C(=O)O` [Penicillin G], in the data set on MUTZ-3 cells, the “SVM DV” value is 1,06. For the same molecule, the Human potency with human skin (Table 8) is 3.

Consider `CC(O)CO` (stereo not drawn) [Propylene glycol], for which, in the data set on MUTZ-3 cells, the “SVM DV” value was -1,18. In addition, the Human potency in the data set on human skin (Table 8) is reported as 5.

Turning to `O=Cc1ccccc1` [benzaldehyde], in the data set with MUTZ-3 cells, the “SVM DV” value is given as -2,13.

As for `Clc1ccccc1` [chlorobenzene], the “SVM DV” value in the data set on MUTZ-3 cells is -1,63. In addition, in the data set on human skin, the HP is 6 and the Human potency is reported as 6.

As for `O=CC=Cc1ccccc1` [cinnamaldehyde], the HP in the data set on human skin is 2.

For the molecule `O=c1c(-c2ccccc2)c1-c1ccccc1` [diphenylcyclopropenone], the binary class entry in data set [1] was “sens”. Moreover, the HP with human skin (Table 4) is recorded as 1.

Consider `NCCN` [ethylenediamine], for which the “SVM DV” value in the data set on MUTZ-3 cells is listed as 1,12.

As for `CC(C)=CCC/C(C)=C/CO` [geraniol], the “SVM DV” value in the data set on MUTZ-3 cells is recorded as 1,76.

As for `OCC(O)CO` [glycerol], in the data set with MUTZ-3 cells, the “SVM DV” value was -2,05. Besides, the HP with human skin (Table 4) is recorded as 6. Further, in the data set on human skin (Table 8), the Human potency is 6.

As for `O=CC=O` [glyoxal], the “SVM DV” value with MUTZ-3 cells is given as 1,08. Further, in the data set on human skin, the HP was 2 and the Human potency was 2.

Take `CCCCCC` [hexane]: the binary class entry in data set [1] is “non-sens”. For the same molecule, the HP in the data set with human skin (Table 4) was 6.

Take `Oc1ccc(O)cc1` [hydroquinone]: the binary class entry in data set [1] is reported as “sens”. Further, in the data set with human skin (Table 4), the HP was 3.

Turning to `CC(CC=O)CCCC(C)(C)O` (stereo not drawn) [hydroxycitronellal], the binary class entry in data set [1] is “sens”. The HP with human skin (Table 4) is given as 4.

For the molecule `CC(O)C(=O)O` (stereo not drawn) [lactic acid], the “SVM DV” value in the data set on MUTZ-3 cells was -2,38. Also, in the data set with human skin, the HP is listed as 6 and the Human potency is listed as 6.

Regarding `CCCCCCCCCCCCOC(=O)c1cc(O)c(O)c(O)c1` [lauryl gallate], the binary class entry in data set [1] is “sens”. Besides, the HP in the data set with human skin (Table 4) is given as 2.

With `N#CCCC(Br)(C#N)CBr` (stereo not drawn) [methyldibromo glutaronitrile], the binary class result in data set [1] is reported as “sens”. In addition, in the data set on human skin (Table 4), the HP is given as 2.

`O=C(O)c1ccc(O)cc1` [p-hydroxybenzoic acid]: in data set [1], the binary class result is “non-sens”.

Regarding `O=CCc1ccccc1` [phenyl acetaldehyde], in data set [1], the binary class result was “sens”.

Regarding `O=C(Oc1ccccc1)c1ccccc1` [phenyl benzoate], the binary class result in data set [1] is “sens”. The HP in the data set with human skin (Table 4) is given as 3.

Take `Oc1cccc(O)c1` [resorcinol]: the “SVM DV” value in the data set on MUTZ-3 cells is 1,03. For the same molecule, the HP in the data set on human skin (Table 2, benchmark chemicals) is reported as 4; in the data set on human skin (Table 4), 4. Moreover, the Human potency with human skin (Table 8) is 4.

Turning to `O=C(O)c1ccccc1O` [salicylic acid], the “SVM DV” value with MUTZ-3 cells is recorded as -1,41. In the data set on human skin, the HP is listed as 6 and the Human potency is 6.

`CN(C)C(=S)SSC(=S)N(C)C` [tetramethylthiuram disulfide]: the HP with human skin is 3.

Consider chloroanilin, for which the binary class result in data set [1] is listed as “sens”.

On to xylene, for which the HP with human skin (Table 4) is listed as 6. In the data set with human skin (Table 6, test set), the “Human potency [41]” value was 6.

The record behind these values is patent EP3417074B1, “ANALYTICAL METHODS AND ARRAYS FOR USE IN THE SAME” (SenzaGen AB, priority 2016, dated 2017).
